The text below walks through data of paper PMC8715118, “Assessing potentiation of the (α4)3(β2)2 nicotinic acetylcholine receptor by the allosteric agonist CMPI” (The Journal of Biological Chemistry, 2021).

Common to all, as to assay type: cell-based
The target of experiment [1] is T1, (α4)3(β2)2 nAChR (Homo sapiens, UniProt P17787+P43681).
T1 construct: expressed in transfected cells; host or cells: Xenopus laevis oocytes injected with cRNA, 8:1 α4:β2
Kind of experiment: Mechanistic (Monod-Wyman-Changeux two-state model) analysis of current responses, WT (α4)3(β2)2 nAChR. Particulars: for peak PA: calculated with Equation 2; for Kd / c, ratio of equilibrium dissociation constants active/resting receptor: WT. From the text:
To gain mechanistic insight into receptor activation in the presence of CMPI, we analyzed the currents in the framework of a cyclic two-state (resting and active) allosteric activation model ([31], [32], [33]). In this model, channel opening is mediated by stabilization of the active state by an agonist that, by definition, has higher affinity to the active than resting state.
We commenced by converting the raw amplitudes of current responses to units of probability of being in the active state (PA units).
Further analysis of electrophysiological data was conducted in the framework of the two-state concerted transition model, adapted from the MWC cyclic model originally used to describe enzyme function ([31], [32], [33]). The raw peak amplitudes of current responses were converted to units of probability of being in the active state (PA).
The numbers of α4:β2 and α4:α4 binding sites (Nα4:β2 and Nα4:α4) were constrained to 2 and 1, respectively.
The concentration-response curve for TC-2559 was fitted to the following equation:(3) PA=1/1+L[1+[TC-2559]/KR,TC-2559,α4:β2/1+[TC-2559]/(KR,TC-2559,α4:β2cTC-2559,α4:β2)]^Nα4:β2
The concentration-response data were analyzed using Equation 3, with the value of L modified to reflect receptor activation by TC-2559, and the affinity and efficacy terms in the equation reflecting the values for CMPI. The number of binding sites for CMPI in Equation 3 was constrained to 1.
Curve fitting was done using Origin 2020 (OriginLab Corp). The results are reported as best-fit parameter ±SD of the fit. All data are included in the analysis.

Experiment [2] addresses T1, (α4)3(β2)2 nAChR. Put plainly: Two-electrode voltage-clamp whole-cell currents, Xenopus oocytes expressing WT (α4)3(β2)2 nAChR. Particulars: for current response produced by a saturating concentration (100 μM), % of current elicited by 1 mM ACh: 100 μM agonist; for current response at subsaturating concentration, % of the current response to 1 mM ACh: subsaturating (1 μM) agonist. The method, then:
(§1) Oocytes-positive female Xenopus laevis were purchased from NASCO, and all procedures were performed according to an animal use protocol approved by the Institutional Animals Care and Use Committee of The University of Texas Health Science Center at Tyler. Ovarian lobules were surgically harvested, treated with collagenase type 2, and Stage V and VI oocytes were visually selected and maintained at 18 °C in modified ND96-gentamicin buffer (96 mM NaCl, 2 mM KCl, 1.8 mM CaCl2, 1 mM MgCl2, 5 mM Hepes, and 50 μg/ml gentamicin, pH 7.6).
(§2) pSP64 Poly(A) plasmids with cDNA encoding for human α4 or β2 nAChR subunit were used to prepare cRNA transcripts suitable for oocyte expression. The plasmids were linearized with AseI (hα4) and PvuII (hβ2), then cRNA transcripts were prepared in vitro using mMESSAGE mMACHINE high yield-capped RNA transcription kits (Ambion, Thermo Fisher Scientific), purified on NucAway Spin column (Invitrogen, Thermo Fisher Scientific), and stored at −80 °C until used. Point mutations within the plasmid encoding the α4 nAChR subunit were introduced using QuikChange II Site-Directed Mutagenesis Kit (Agilent Technologies), as described previously ([28]). To generate amino acid substitutions (K64T, E66I, H116V, H116L, and H116A), two custom-designed complementary oligos containing the desired mutation were used (Integrated DNA Technologies). The forward primers were as the following with the codon for mutated amino acids are underlined and nucleotide(s) changes are bolded and italicized:
(§3) The oocytes were injected with 10 to 50 ng of a cRNA mix containing α4 (WT or mutant) and β2 RNAs at ratios of 8:1(α4:β) or 1:8 (α4:β2) to bias expression toward (α4)3(β2)2 or (α4)2(β2)3 nAChRs, respectively. The injection of oocytes with RNAs mixture containing four folds or higher α4 RNA than β2 RNA have been established to express receptor population that is made up of three α4 and two β2 subunits ([9], [12], [28], [43], [44], [45]).
(§4) 24 to 72 h after cRNA injection, Xenopus oocytes were placed in a custom-made recording chamber that is connected to an eight-channel automated perfusion system (Warner Instruments) and perfused with recording buffer (100 mM NaCl, 2 mM KCl, 1 mM CaCl2, 0.8 mM MgCl2, 1 mM EGTA, and 10 mM Hepes, pH 7.5). Unless otherwise specified in figure legends, each recording run included several drug applications (10 s of an agonist with or without CMPI or NS9283) separated by 3 to 4 min buffer wash intervals. Between recording runs, the oocytes were washed with recording buffer for at last 5 min. The oocytes were voltage-clamped at −50 mV using Oocyte Clamp OC-725B (Warner Instruments). The currents were digitized using Digidata 1550A (Axon Instruments, Molecular Devices), and the peak currents were quantified using pCLAMP 10 (Axon Instruments), then normalized and analyzed using Excel 2010 (Microsoft) and SigmaPlot 11.0 (Systat Software). For NS9283 and CMPI potentiation of agonist-induced responses, the peak currents were normalized to current elicited by agonist alone applied within the same recording run. For the effect of coapplication of 1 μM NS9283 or CMPI on agonist concentration-response curve, the peak currents were normalized to current elicited by saturating concentration of agonist applied within the same recording run. […] I0 = 100 for NS9283 and CMPI potentiation of agonist-induced responses and I0 = 0 for agonist concentration-response experiments. The best-fit values for Imax and EC50 ± SD are presented.

Another experiment has as its target T2, (α4H116L)3(β2)2 nAChR (Homo sapiens, UniProt P17787+P43681, H142L).
T2 construct: expressed in transfected cells; host or cells: Xenopus laevis oocytes injected with cRNA, 8:1 α4:β2
Put plainly: Two-electrode voltage-clamp, oocytes expressing (α4H116L)3(β2)2 nAChR. The method, then: as §1, §2, §3
(§5) 24 to 72 h after cRNA injection, Xenopus oocytes were placed in a custom-made recording chamber that is connected to an eight-channel automated perfusion system (Warner Instruments) and perfused with recording buffer (100 mM NaCl, 2 mM KCl, 1 mM CaCl2, 0.8 mM MgCl2, 1 mM EGTA, and 10 mM Hepes, pH 7.5). Unless otherwise specified in figure legends, each recording run included several drug applications (10 s of an agonist with or without CMPI or NS9283) separated by 3 to 4 min buffer wash intervals. Between recording runs, the oocytes were washed with recording buffer for at last 5 min. […] The currents were digitized using Digidata 1550A (Axon Instruments, Molecular Devices), and the peak currents were quantified using pCLAMP 10 (Axon Instruments), then normalized and analyzed using Excel 2010 (Microsoft) and SigmaPlot 11.0 (Systat Software). […]

The next experiment has as its target T3, (α4H116V)3(β2)2 nAChR (Homo sapiens, UniProt P17787+P43681, H142V).
T3 construct: expressed in transfected cells; host or cells: Xenopus laevis oocytes injected with cRNA, 8:1 α4:β2
Kind of experiment: Two-electrode voltage-clamp, oocytes expressing (α4H116V)3(β2)2 nAChR. The method, then: as §1, §2, §3, §5
For orientation: In two-electrode clamp one electrode senses voltage and the other passes current.

Another experiment addresses T4, (α4K64T)3(β2)2 nAChR (Homo sapiens, UniProt P17787+P43681, K90T).
T4 construct: expressed in transfected cells; host or cells: Xenopus laevis oocytes injected with cRNA, 8:1 α4:β2
Put plainly: Two-electrode voltage-clamp, oocytes expressing (α4K64T)3(β2)2 nAChR. Here is the method: as §1, §2, §3, §5

Another experiment has as its target T5, (α4H116A)3(β2)2 nAChR (Homo sapiens, UniProt P17787+P43681, H142A).
T5 construct: expressed in transfected cells; host or cells: Xenopus laevis oocytes injected with cRNA, 8:1 α4:β2
Put plainly: Two-electrode voltage-clamp, oocytes expressing (α4H116A)3(β2)2 nAChR. To be noted: 1 μM modulator. Here is the method:
as §1, §2, §3, §4

Another experiment concerns the target T6, (α4E66I)3(β2)2 nAChR (Homo sapiens, UniProt P17787+P43681, E92I).
T6 construct: expressed in transfected cells; host or cells: Xenopus laevis oocytes injected with cRNA, 8:1 α4:β2
Put plainly: Two-electrode voltage-clamp, oocytes expressing (α4E66I)3(β2)2 nAChR. Here is the method: as §1, §2, §3, §5

Molecules are shown by their SMILES. Where “and” joins values, the source holds several entries; their conditions need not be identical. Identical values can stand only once. Like-named read-outs stand apart in the source and are kept apart here.

T1 sequence (P43681 27-627): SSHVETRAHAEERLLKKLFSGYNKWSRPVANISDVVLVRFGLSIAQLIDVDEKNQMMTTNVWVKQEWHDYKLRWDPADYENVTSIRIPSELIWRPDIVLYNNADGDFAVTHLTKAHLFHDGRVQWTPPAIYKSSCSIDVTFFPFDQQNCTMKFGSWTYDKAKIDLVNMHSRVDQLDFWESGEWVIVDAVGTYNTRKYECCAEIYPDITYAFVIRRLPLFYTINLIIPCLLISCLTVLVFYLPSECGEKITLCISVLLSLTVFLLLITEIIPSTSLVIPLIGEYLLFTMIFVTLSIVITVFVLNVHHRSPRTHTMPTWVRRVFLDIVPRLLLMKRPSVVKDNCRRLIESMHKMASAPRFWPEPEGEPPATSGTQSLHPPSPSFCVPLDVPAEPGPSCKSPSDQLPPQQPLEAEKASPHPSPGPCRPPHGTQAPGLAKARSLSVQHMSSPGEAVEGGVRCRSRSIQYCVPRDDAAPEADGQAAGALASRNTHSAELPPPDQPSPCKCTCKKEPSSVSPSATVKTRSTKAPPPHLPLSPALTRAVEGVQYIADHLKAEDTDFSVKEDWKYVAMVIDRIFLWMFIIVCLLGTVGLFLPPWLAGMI
T1 sequence (P17787 26-502): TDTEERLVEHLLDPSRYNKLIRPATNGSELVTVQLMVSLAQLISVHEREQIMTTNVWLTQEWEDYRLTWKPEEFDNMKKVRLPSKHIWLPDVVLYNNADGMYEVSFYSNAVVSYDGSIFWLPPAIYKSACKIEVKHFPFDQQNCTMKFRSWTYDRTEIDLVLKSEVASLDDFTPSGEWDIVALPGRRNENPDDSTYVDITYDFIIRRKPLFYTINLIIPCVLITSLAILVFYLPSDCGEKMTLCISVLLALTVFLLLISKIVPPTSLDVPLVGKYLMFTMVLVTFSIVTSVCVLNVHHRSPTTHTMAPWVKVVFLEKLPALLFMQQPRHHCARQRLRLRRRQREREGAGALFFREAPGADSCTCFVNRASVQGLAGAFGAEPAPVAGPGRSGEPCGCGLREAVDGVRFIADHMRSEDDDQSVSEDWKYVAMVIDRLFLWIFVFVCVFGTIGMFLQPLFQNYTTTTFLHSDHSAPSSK
T5 sequence (P43681 27-627 H142A): as the sequence (P43681 27-627) above, with H116A counted along it
T5 sequence (P17787 26-502): as the sequence (P17787 26-502) above
T2 sequence (P43681 27-627 H142L): as the sequence (P43681 27-627) above, with H116L counted along it
T2 sequence (P17787 26-502): as the sequence (P17787 26-502) above
T6 sequence (P43681 27-627 E92I): as the sequence (P43681 27-627) above, with E66I counted along it
T6 sequence (P17787 26-502): as the sequence (P17787 26-502) above
T3 sequence (P43681 27-627 H142V): as the sequence (P43681 27-627) above, with H116V counted along it
T3 sequence (P17787 26-502): as the sequence (P17787 26-502) above
T4 sequence (P43681 27-627 K90T): as the sequence (P43681 27-627) above, with K64T counted along it
T4 sequence (P17787 26-502): as the sequence (P17787 26-502) above

On to `CC(=O)OCC[N+](C)(C)C` [ACh, Acetylcholine chloride], for which the “PA,1 mM ACh (peak probability of being in the active state)” value at (α4)3(β2)2 nAChR [1] (1 mM ACh, normalized to 1 mM ACh + 3 μM dFBr) is 0.36 ± 0.05 and 0.36. The “free energy change toward stabilization of the active state (ΔGgating)” value on (α4)3(β2)2 nAChR [1] (binding to the single α4:α4 site) was -1.27 kcal/mol. Moreover, at (α4)3(β2)2 nAChR [1] (binding to the two α4:β2 sites), the “free energy change toward stabilization of the active state (ΔGgating,total)” value was -1.69 kcal/mol. The “peak PA” value at (α4)3(β2)2 nAChR [1] (occupation of the two α4:β2 sites and the single α4:α4 site with ACh) was 0.36; at (α4)3(β2)2 nAChR [1] (occupation of the two α4:β2 sites with ACh) it was 0.072. Moreover, the ΔGgating per site on (α4)3(β2)2 nAChR [1] (per α4:β2 site) was -0.84 kcal/mol.
On to `N#Cc1cccc(-c2nc(-c3cccnc3)no2)c1` [NS9283, 3-[3-(3-pyridinyl)-1,2,4-oxadiazol-5-yl]benzonitrile], for which the maximal potentiation on (α4)3(β2)2 nAChR [2] (1 μM TC-2559) stood at 1800 ± 307%; at (α4)3(β2)2 nAChR [2] (10 μM TC-2559) it was 1522 ± 41%. In addition, the “effect on responses to agonists at subsaturating concentrations” value at (α4)3(β2)2 nAChR [2] (1 μM modulator, ACh, nicotine, cytisine, TC-2559, p < 0.001) is recorded as “potentiated”. Further, at (α4)3(β2)2 nAChR [2] (1 μM modulator, except for TC-2559), the “effect on responses to saturating concentrations of the tested agonists” value is listed as “did not potentiate”. Moreover, the “potentiation fold (Ave ± SD), agonist + 1 μM modulator / agonist alone” value is 1.00 ± 0.04 on (α4)3(β2)2 nAChR [2] (ACh (1 mM), 1 μM modulator); 5.05 and 5.05 ± 1.66 on (α4)3(β2)2 nAChR [2] (TC 2559 (30 μM), 1 μM modulator); 0.95 ± 0.03 at (α4H116L)3(β2)2 nAChR (ACh (1 mM)); 1.18 ± 0.17 on (α4H116L)3(β2)2 nAChR (TC 2559 (30 μM)); 0.90 ± 0.02 on (α4H116V)3(β2)2 nAChR (ACh (1 mM)); 0.87 ± 0.06 on (α4H116V)3(β2)2 nAChR (TC 2559 (30 μM)). The “potentiation fold (Ave ± SD), agonist + 1 μM modulator / agonist alone” value on (α4K64T)3(β2)2 nAChR (ACh (1 mM)) amounted to 1.10 ± 0.08; at (α4K64T)3(β2)2 nAChR (TC 2559 (30 μM)), 4.72 ± 2.27; at (α4H116A)3(β2)2 nAChR (ACh (1 mM)), 0.98 ± 0.03; at (α4H116A)3(β2)2 nAChR (TC 2559 (30 μM)), 0.93 ± 0.12; at (α4E66I)3(β2)2 nAChR (ACh (1 mM)), 0.95 ± 0.07; at (α4E66I)3(β2)2 nAChR (TC 2559 (30 μM)), 2.68 ± 1.08. In addition, the EC50 is 1900 ± 200 nM at (α4)3(β2)2 nAChR [2] (responses induced by 1 μM TC-2559, read-out: potentiation EC50) and 1800 ± 120 nM on (α4)3(β2)2 nAChR [2] (responses induced by 10 μM TC-2559, read-out: potentiation EC50).
Turning to `O=c1cccc2n1C[C@@H]1CNC[C@H]2C1` [cytisine], the “current response produced by a saturating concentration (100 μM), % of current elicited by 1 mM ACh” value on (α4)3(β2)2 nAChR [2] stood at 10 ± 1%. The “I100 μM cytisine + 1 μM CMPI” value at (α4)3(β2)2 nAChR [2] (% of 100 μM cytisine alone) is 91 ± 5%. The “I100 μM cytisine + 1 μM NS9283” value at (α4)3(β2)2 nAChR [2] (% of 100 μM cytisine alone, data not shown) came out at 113 ± 9%. Also, on (α4)3(β2)2 nAChR [2] (agonist alone, read-out: agonist EC50), the EC50 stood at 11000 ± 6000 nM. In addition, the “current response at subsaturating concentration, % of the current response to 1 mM ACh” value on (α4)3(β2)2 nAChR [2] is recorded as 2.3 ± 0.4%. Further, the Kd turned out to be 8300 ± 500 nM on (α4)3(β2)2 nAChR [1] (KR, equilibrium dissociation constant in the resting receptor, α4:α4 site) and 630 ± 1240 nM on (α4)3(β2)2 nAChR [1] (read-out: KR, equilibrium dissociation constant in the resting receptor, α4:β2 site). Besides, the results for the “c, ratio of equilibrium dissociation constants active/resting receptor” value at (α4)3(β2)2 nAChR [1] (α4:α4 site) and at (α4)3(β2)2 nAChR [1] (α4:β2 site) were 0.155 ± 0.104 and 0.875 ± 0.029, respectively.
As for `C=CC(C)(C)c1[nH]c2cc(Br)ccc2c1CCNC` [dFBr, desformylflustrabromine], the “peak response to 1 mM ACh, % of control” value on (α4)3(β2)2 nAChR [2] (1 mM ACh + 3 μM dFBr) amounted to 278 ± 36%.
In the case of `CN1CCC[C@H]1c1cccnc1` [nicotine], at (α4)3(β2)2 nAChR [2], the “current response produced by a saturating concentration (100 μM), % of current elicited by 1 mM ACh” value came to 73 ± 3% and the “current response at subsaturating concentration, % of the current response to 1 mM ACh” value is 2.9 ± 0.4%.

As usually defined, the EC50 is the concentration giving half of the maximal effect.
